pIC50: −log10 of the molar value. Activity calls are given as the source filed them. The rule behind the calls is not given here.
Legend:
[1] = tested on: Mus musculus; test: Anti-fibrotic effect in improving CCl4-induced hepatic fibrosis C57BL/6 mouse model assessed as decrease in liver to kidney brightness ratio at 500 ug/kg, po five times a week for 2 weeks by qualitative ultrasound imaging analysis; type: functional, organism-based; settings: dose 500.0 µg/kg
[2] = tested on: Mus musculus; test: Anti-fibrotic effect in CCl4-induced hepatic fibrosis C57BL/6 mouse model assessed as decrease in inflammatory cell infiltration at 500 ug/kg, po five times a week for 2 weeks by Masson's Trichrome staining based assay; type: functional, organism-based; settings: dose 500.0 µg/kg
[3] = tested on: Mus musculus; test: Anti-fibrotic effect in CCl4-induced hepatic fibrosis C57BL/6 mouse model assessed as inhibition of collagen deposition at 500 ug/kg, po five times a week for 2 weeks by Hematoxylin-Eosin (H&E) staining based assay; type: functional, organism-based; settings: dose 500.0 µg/kg
[4] = tested on: Mus musculus; test: Anti-fibrotic effect in CCl4-induced hepatic fibrosis C57BL/6 mouse model assessed as reduction the lesions at 500 ug/kg, po five times a week for 2 weeks by Masson's Trichrome staining based assay; type: functional, organism-based; settings: dose 500.0 µg/kg
[5] = target: T1, Vitamin D3 receptor (Homo sapiens) (UniProt P11473); test: Binding affinity to human full-length Vitamin D receptor assessed as relative binding affinity at 1 uM incubated for 2 hrs by fluorescence polarization based competitive binding assay relative to calcipotriol
T1 sequence (whole entry): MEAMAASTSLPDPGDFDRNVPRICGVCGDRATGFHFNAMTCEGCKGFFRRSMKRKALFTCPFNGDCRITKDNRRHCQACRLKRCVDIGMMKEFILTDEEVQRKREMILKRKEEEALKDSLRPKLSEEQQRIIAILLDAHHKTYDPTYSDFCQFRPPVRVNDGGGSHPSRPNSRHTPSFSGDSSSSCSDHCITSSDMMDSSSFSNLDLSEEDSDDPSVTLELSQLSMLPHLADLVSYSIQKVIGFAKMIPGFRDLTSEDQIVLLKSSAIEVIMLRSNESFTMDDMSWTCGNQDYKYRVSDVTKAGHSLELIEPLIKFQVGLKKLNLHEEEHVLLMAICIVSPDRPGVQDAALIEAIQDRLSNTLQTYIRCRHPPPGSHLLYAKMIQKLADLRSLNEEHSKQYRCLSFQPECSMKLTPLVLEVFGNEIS

[6] = target: T1, Vitamin D3 receptor (Homo sapiens); test: Agonist activity at Vitamin D receptor in HEK293 cells assessed as receptor transactivation incubated for 48 hrs by dual-luciferase reporter assay; type: cell-based; settings: filed as agonist, dose 0.01-1 µM
[7] = tested on: Mus musculus; test: Anti-fibrotic effect in CCl4-induced hepatic fibrosis C57BL/6 mouse model assessed as inhibition of serum AST level at 500 ug/kg, po five times a week for 2 weeks; type: functional, organism-based; settings: dose 500.0 µg/kg
[8] = tested on: Mus musculus; test: Anti-fibrotic effect in CCl4-induced hepatic fibrosis C57BL/6 mouse model assessed as inhibition of serum ALT level at 500 ug/kg, po five times a week for 2 weeks; type: functional, organism-based; settings: dose 500.0 µg/kg
[9] = tested on: Mus musculus; test: Anti-fibrotic effect in CCl4-induced hepatic fibrosis C57BL/6 mouse model assessed as reduction the lesions at 500 ug/kg, po five times a week for 2 weeks by Hematoxylin-Eosin (H&E) staining based assay; type: functional, organism-based; settings: dose 500.0 µg/kg
[10] = tested on: Mus musculus; test: Anti-fibrotic effect in CCl4-induced hepatic fibrosis C57BL/6 mouse model assessed as inhibition of collagen deposition at 500 ug/kg, po five times a week for 2 weeks by Masson's Trichrome […] staining based assay; type: functional, organism-based; settings: dose 500.0 µg/kg
[11] = tested on: Mus musculus; test: Anti-fibrotic effect in CCl4-induced hepatic fibrosis C57BL/6 mouse model assessed as decrease in inflammatory cell infiltration at 500 ug/kg, po five times a week for 2 weeks by Hematoxylin-Eosin (H&E) staining based assay; type: functional, organism-based; settings: dose 500.0 µg/kg
[12] = tested on: Mus musculus; test: Anti-fibrotic effect in CCl4-induced hepatic fibrosis C57BL/6 mouse model assessed as inhibition of proliferation of fibrous tissue at 500 ug/kg, po five times a week for 2 weeks by Masson's Trichrome […] staining based assay; type: functional, organism-based; settings: dose 500.0 µg/kg
[13] = Cytotoxicity against human LX-2 cells by CCK-8 assay; type: toxicity, cell-based
[14] = tested on: Mus musculus; test: Anti-fibrotic effect in CCl4-induced hepatic fibrosis C57BL/6 mouse model assessed as reduction in hepatic fibrosis lesions at 500 ug/kg, po five times a week for 2 weeks by Hematoxylin-Eosin (H&E) staining based assay; type: functional, organism-based; settings: dose 500.0 µg/kg
[15] = tested on: Mus musculus; test: Anti-fibrotic effect in CCl4-induced hepatic fibrosis C57BL/6 mouse model assessed as inhibition of proliferation of fibrous tissue at 500 ug/kg, po five times a week for 2 weeks by Hematoxylin-Eosin (H&E) staining based assay; type: functional, organism-based; settings: dose 500.0 µg/kg
[16] = tested on: Mus musculus; test: Anti-fibrotic effect in CCl4-induced hepatic fibrosis C57BL/6 mouse model assessed as inhibition of serum total bile acid (TBA) level at 500 ug/kg, po five times a week for 2 weeks; type: functional, organism-based; settings: dose 500.0 µg/kg
[17] = tested on: Mus musculus; test: Anti-fibrotic effect in improving CCl4-induced hepatic fibrosis C57BL/6 mouse model assessed as uniform liver parenchyma at 500 ug/kg, po five times a week for 2 weeks by qualitative ultrasound imaging analysis; type: functional, organism-based; settings: dose 500.0 µg/kg
[18] = tested on: Mus musculus; test: Anti-fibrotic effect in CCl4-induced hepatic fibrosis C57BL/6 mouse model assessed as reduction in hepatic fibrosis lesions at 500 ug/kg, po five times a week for 2 weeks by Masson's Trichrome staining based assay; type: functional, organism-based; settings: dose 500.0 µg/kg
[19] = target: T1, Vitamin D3 receptor (Homo sapiens); test: Agonist activity at Vitamin D receptor in human LX-2 cells assessed as transcriptional activity by measuring induction of CYP24A expression at 0.5 uM by RT-qPCR analysis relative to control; type: cell-based
[20] = Toxicity in CCl4-induced hepatic fibrosis C57BL/6 mouse model assessed as serum hypercalcemia at 100 ug/kg, po five times a week for 2 weeks by calcium assay kit; type: organism-based; settings: in vivo, 0.1 mg/kg, 336 h, dose 100 µg/kg
[21] = tested on: LX-2; test: Inhibition of TGF-beta1 induced human LX-2 cell activation assessed as inhibition of alpha-SMA expression at 0.5 uM by Western blot analysis relative to control; type: functional, cell-based
[22] = tested on: LX-2; test: Inhibition of TGF-beta1 induced human LX-2 cell activation assessed as inhibition of collagen I expression at 0.5 uM by Western blot analysis relative to control; type: functional, cell-based

CCC(O)(CC)CCCOc1cccc(/C=C/c2ccc(CO)c(CO)c2)c1
Activity [1]: Active | Activity [2]: Active | Activity [3]: Active | Activity [4]: Active | RBA ([5]; filed as agonist): 48% | Activity [6]: Dose-Dependent Effect | Activity [7]: Active | Activity [8]: Active | Activity [9]: Active | Activity [10]: Active | Activity [11]: Active | Activity [12]: Active | pIC50 [13]: < 4.52 | Activity [14]: Active | Activity [15]: Active | Activity [16]: Active | Activity [17]: Active | Activity [18]: Active | Activity ([19]; filed as agonist): Active

C=C1/C(=C\C=C2/CCC[C@]3(C)[C@@H]([C@H](C)/C=C/[C@@H](O)C4CC4)CC[C@@H]23)C[C@@H](O)C[C@@H]1O [CALCIPOTRIENE]
Activity [20]: Non-Toxic

CC(C)(O)CCCOc1cccc(CCc2ccc(CO)c(CO)c2)c1
RBA [5]: 14.4% | pIC50 [13]: < 4.52 | Activity [19]: inactive

OCc1ccc(/C=C/c2cccc(OCCCC(F)(F)F)c2)cc1CO
RBA [5]: 30.1% | pIC50 [13]: < 4.52 | Activity ([19]; filed as agonist): Active

OCCCCOc1cccc(CCc2ccc(CO)c(CO)c2)c1
RBA [5]: 32.4% | pIC50 [13]: < 4.52 | Activity [19]: inactive

C=CCC(O)(CC=C)CCCCCOc1cccc(COc2ccc(CO)c(CO)c2)c1
RBA ([5]; filed as agonist): 46.2% | pIC50 [13]: < 4.52 | Activity ([19]; filed as agonist): Active

OCCCCCOc1ccc(CCc2ccc(CO)c(CO)c2)cc1
RBA ([5]; filed as agonist): 46.2% | pIC50 [13]: < 4.52 | Activity [19]: inactive

CCn1c(C(=O)N[C@@H](C)CO)ccc1C(CC)(CC)c1ccc(OCC(O)C(C)(C)C)c(C)c1 (some centres undefined)
Activity [1]: Active | Activity [2]: Active | Activity [3]: Active | Activity [4]: Active | Activity [9]: Active | Activity [10]: Active | Activity [11]: Active | Activity [12]: Active | Activity [14]: Active | Activity [15]: Active | Activity [17]: Active | Activity [18]: Active

CCC(O)(CC)CCCOc1cccc(COc2ccc(CO)c(CO)c2)c1
RBA ([5]; filed as agonist): 43.4% | pIC50 [13]: < 4.52 | Activity ([19]; filed as agonist): Active

C=CCC(O)(CC=C)CCCOc1cccc(CCc2ccc(CO)c(CO)c2)c1
RBA [5]: 35.3% | pIC50 [13]: < 4.52 | Activity [19]: inactive

C=CCC(O)(CC=C)CCCCOc1ccc(CCc2ccc(CO)c(CO)c2)cc1
RBA [5]: 16.2% | pIC50 [13]: < 4.52 | Activity [19]: inactive

CCC(O)(CC)CCCCOc1ccc(CCc2ccc(CO)c(CO)c2)cc1
RBA ([5]; filed as agonist): 44.5% | pIC50 [13]: < 4.52 | Activity [19]: inactive

CC(C)(O)CCCCOc1ccc(CCc2ccc(CO)c(CO)c2)cc1
RBA [5]: 11.6% | pIC50 [13]: < 4.52 | Activity [19]: inactive

CCC(O)(CC)CCCOc1cccc(CCc2ccc(CO)c(CO)c2)c1
RBA [5]: 28.3% | pIC50 [13]: < 4.52 | Activity [19]: inactive

OCc1ccc(/C=C/c2cccc(OCCCC(O)(c3ccccc3)c3ccccc3)c2)cc1CO
RBA [5]: 23.7% | pIC50 [13]: < 4.52

CN1CCN(CCCOc2ccc(/C=C/c3ccc(CO)c(CO)c3)cc2)CC1
RBA [5]: 21.4% | pIC50 [13]: < 4.52

CCC(Oc1ccc(CO)c(CO)c1)c1cccc(OCCCC(O)(CC)CC)c1 (centres undefined)
Activity [1]: Active | inhibition [21]: Active | Activity [2]: Active | Activity [3]: Active | Activity [4]: Active | RBA ([5]; filed as agonist): 54.3% | Activity [6]: Dose-Dependent Effect | Activity [7]: Active | Activity [8]: Active | Activity [9]: Active | Activity [10]: Active | Activity [11]: Active | Activity [12]: Active | pIC50 [13]: < 4.52 | Activity [14]: Active | Activity [15]: Active | Activity [16]: Active | Activity [17]: Active | Activity [18]: Active | Activity ([19]; filed as agonist): Active | inhibition [22]: Active

CCC(O)(CC)CCCOc1cccc(C(C)Oc2ccc(CO)c(CO)c2)c1 (centres undefined)
RBA ([5]; filed as agonist): 45.1% | pIC50 [13]: < 4.52

CCN(CC)CCCOc1cccc(/C=C/c2ccc(CO)c(CO)c2)c1
RBA ([5]; filed as agonist): 42.2% | pIC50 [13]: < 4.52
